Data published in patent publication US11247965B2 (VenatoRx Pharmaceuticals, Inc., priority 2017, dated 2022).
Where two headings read alike, the source gives them in different places.

Columns and labels:
[1] = system: HBV replication in HepAD38 cells; experiment: Anti-HBV activity in HepAD38 cells, extracellular HBV DNA by QPCR; format: cell-based, HBV (genotype D, serotype ayw); settings: Hepatitis B virus, HePAD38, 168 h
Description: The anti-HBV activity of the Capsid Assembly Modulators (CAMs) was evaluated in a cell based assay utilizing the human hepatoma cell line HepAD38 (Ladner, S K., et al., 1998). HepAD38 cells were derived from the parental line, HepG2, that were stably transfected with a construct containing an HBV genome (genotype D, serotype ayw) under the control of a tetracycline repressible CMV promoter. Upon removal of tetracycline, viral pre-genomic RNA (pgRNA) and mRNAs are expressed and infectious viral particles are assembled and secreted into the culture medium providing a reliable, robust system to measure multiple steps of the HBV life cycle. Disruption of capsid formation results in reduced levels of DNA-containing virus particles that are released into the culture supernatant. To quantify the effect of CAMs on HBV replication, we developed a sensitive QPCR-based assay that measures extracellular HBV DNA levels upon treatment of HepAD38 cells with various concentrations of test compounds.
HepAD38 cells were maintained in DMEM/F12 medium containing 10% FBS, 400 μg/mL G418 and 0.3 μg/mL tetracycline (tet+medium) to maintain repression of HBV replication. To evaluate each compound, HepAD38 cells were seeded into 24-well collagen coated culture plates (Corning BioCoat) at a density of 200,000 cells per well in 1 mL of tet+medium and allowed to adhere overnight at 37° C., 5% CO2 in a humidified incubator. The following day, test articles were subjected to half-logo serial dilutions, ranging from 30 μM to 10 nM, in 100% DMSO at 200× the desired final assay concentration. Tetracycline was removed from the cells by aspirating the tet+medium and washing the cells once with growth medium lacking tetracycline (tet-). Various concentrations of each compound were added to the appropriate wells (1:200 dilution) and the plates were returned to the incubator. Following 7 days of incubation, culture supernatants were harvested and HBV DNA levels were evaluated by QPCR and compared to the vehicle treated control wells (i.e. DMSO alone).
To quantify HBV DNA levels, cell culture supernatants were diluted 1:10 in sterile, nuclease-free water (Gibco). The diluted supernatants were subsequently added to a PCR master mix containing 1× Roche Light Cycler Master Mix, 0.5 μM forward primer, 0.5 μM reverse primer (Fwd:
0.2 μM Roche Universal Probe Library Probe 25. The volume was brought to 20 μL with nuclease-free water and amplification of the HBV target sequence was performed using a Roche LightCycler 480 QPCR instrument. PCR extended out to 45 cycles with each cycle consisting of a denaturation step at 95° C. for 10 sec., followed by an annealing step at 60° C. for 10 sec. and a brief extension step at 72° C. for 1 sec.
Extracellular HBV DNA levels, expressed in copies/mL, were determined by comparison to a standard curve (10^2-10^9 copies/mL) using the Roche LightCycler analysis software. These values were subsequently converted to percent inhibition of HBV replication by dividing the HBV DNA levels in the experimental samples with those obtained from the vehicle control (˜1-2×10^5 copies/mL). Potency, expressed as an EC50 (the effective concentration required to inhibit […] of HBV replication), was calculated from the dose-response curve using a 4-parameter non-linear regression analysis (GraphPad Prism). The nucleoside analog inhibitor entecavir was used as a positive control to validate each assay run. The EC50 value of entecavir in the HepAD38 assay was 0.5 nM, as previously reported in the literature.

[2] = In vitro cytotoxicity, MTT cell viability assay in HepG2 cells; format: cell-based; settings: human
Description: To evaluate antiviral selectivity, the cytotoxic activity of each compound was determined using a standard cell viability assay performed on the parental HepG2 cell line. Cell viability was determined by measuring the conversion of 3-(4,5-dimethylthiazol-2-yl)-2,5-diphenyltetrazolium bromide (MTT) to the insoluble formazan salt crystal that occurs in live cells. Briefly, HepG2 cells were seeded in 96-well plates at a density of 20,000 cells per well in EMEM+10% FBS (complete growth medium) and allowed to adhere overnight in a 37° C., 5% CO2 humidified incubator. The next day, test agents were prepared by performing 8 half-log10 serial dilutions in 100% DMSO at 200× the final desired concentration in the assay. Compounds were tested over a range of concentrations from 30 μM to 1.0 nM in the assay. HepG2 cells were incubated in the presence of various concentrations of CAMs for 7 days in a 37° C., 5% CO2 humidified incubator. At the completion of the 7-day incubation period, MTT reagent was added to each well and the mixture was incubated for an additional 3-4 hours. At the completion of the incubation period, all wells were aspirated to remove the culture medium. The formazan crystals were solubilized from the cell monolayers with 100% DMSO. Plates were briefly mixed on an orbital shaker and absorbance was measured at 492 nm using a Perkin-Elmer EnVision multi-label plate reader. All absorbance values were converted to a percentage of the signal obtained from the vehicle treated controls. Absorbance values at 492 nm are directly proportional to the number of viable cells present in the sample. A CC50 value (cytotoxic concentration that results in loss of 50% cell viability) was calculated from the dose-response curve by 4-parameter, non-linear regression analysis using the GraphPad Prism software. The positive control compound, staurosporine, reduced the viability of HepG2 cells in a dose-dependent manner (CC50=100 nM).

[3] = read-out: Anti-HBV EC50, HepAD38 cells, extracellular HBV DNA by QPCR, 7 days of incubation

Compound | EC50 [1, 3] [µM] | CC50 at 7 days ([2]; Cytotoxicity CC50) [µM] | EC50 ([1]; positive control, HepAD38 cells, 7 days incubation, extracellular HBV DNA, read-out: EC50 in the HepAD38 assay) [µM] | CC50 at 7 days ([2]; positive control, HepG2 cells, 7 days incubation, MTT, read-out: CC50, viability of HepG2 cells) [µM]
Cc1cc(NC(=O)c2ccc(F)c(C(F)(F)C(=O)N3[C@@H]4CC[C@H]3C[C@H](O)C4)c2)ccc1F [Example 163, 3-(1,1-difluoro-2-((1R,3s,5S)-3-hydroxy-8-azabicyclo[3.2.1]octan-8-yl)-2-oxoethyl)-4-fluoro-N-(4-fluoro-3-methylphenyl)benzamide] | < 5 | 5 to 30 | – | –
Cc1cc(NC(=O)c2ccc(F)c(C(F)(F)C(=O)N3CCC(O)C(CO)C3)c2)ccc1F (stereo not drawn) [Example 69, 3-(1,1-difluoro-2-(4-hydroxy-3-(hydroxymethyl)piperidin-1-yl)-2-oxoethyl)-4-fluoro-N-(4-fluoro-3-methylphenyl)benzamide] | < 5 | > 30 | – | –
Cc1cc(NC(=O)c2ccc(F)c(C(F)(F)C(=O)N3CC4CNCC4C3)c2)ccc1F (stereo not drawn) [Example 283, 3-(1,1-difluoro-2-(hexahydropyrrolo[3,4-c]pyrrol-2(1H)-yl)-2-oxoethyl)-4-fluoro-N-(4-fluoro-3-methylphenyl)benzamide] | < 5 | 5 to 30 | – | –
Cn1cc(NC(=O)c2ccc(F)c(C(F)(F)C(=O)N3[C@@H]4CC[C@H]3C[C@H](O)C4)c2)cn1 [Example 181, 3-(1,1-difluoro-2-((1R,3s,5S)-3-hydroxy-8-azabicyclo[3.2.1]octan-8-yl)-2-oxoethyl)-4-fluoro-N-(1-methyl-1H-pyrazol-4-yl)benzamide] | 5 to 30 | > 30 | – | –
O=C(Nc1ccc(F)c(F)c1)c1ccc(F)c(C(F)(F)C(=O)N2CCCC(O)C2)c1 (stereo not drawn) [Example 15, 3-(1,1-difluoro-2-(3-hydroxypiperidin-1-yl)-2-oxoethyl)-N-(3,4-difluorophenyl)-4-fluorobenzamide] | < 5 | 5 to 30 | – | –
CO[C@H]1CC2CC[C@H](C1)N2C(=O)C(F)(F)c1cc(C(=O)Nc2ccc(F)c(C)c2)ccc1F [Example 277, 3-(1,1-difluoro-2-((1R,3s,5S)-3-methoxy-8-azabicyclo[3.2.1]octan-8-yl)-2-oxoethyl)-4-fluoro-N-(4-fluoro-3-methylphenyl)benzamide] | < 5 | 5 to 30 | – | –
O=C(Nc1ccc(F)c(Br)c1)c1ccc(F)c(C(F)(F)C(=O)N2CCC(O)(CO)CC2)c1 [Example 190, N-(3-bromo-4-fluorophenyl)-3-(1,1-difluoro-2-(4-hydroxy-4-(hydroxymethyl)piperidin-1-yl)-2-oxoethyl)-4-fluorobenzamide] | < 5 | 5 to 30 | – | –
Cn1ccc(C(=O)Nc2ccc(F)c(Cl)c2)c1C(F)(F)C(=O)NOC(C)(C)C [Example 145, 2-(2-(tert-butoxyamino)-1,1-difluoro-2-oxoethyl)-N-(3-chloro-4-fluorophenyl)-1-methyl-1H-pyrrole-3-carboxamide] | 5 to 30 | > 30 | – | –
O=C(Nc1ccnc(Cl)c1)c1ccc(F)c(C(F)(F)C(=O)N2[C@@H]3CC[C@H]2C[C@H](O)C3)c1 [Example 197, N-(2-chloropyridin-4-yl)-3-(1,1-difluoro-2-((1R,3s,5S)-3-hydroxy-8-azabicyclo[3.2.1]octan-8-yl)-2-oxoethyl)-4-fluorobenzamide] | < 5 | < 5 | – | –
Cc1cc(NC(=O)c2ccc(C(F)(F)C(=O)N3CCC(O)CC3)n2C)ccc1F [Example 99, 5-(1,1-difluoro-2-(4-hydroxypiperidin-1-yl)-2-oxoethyl)-N-(4-fluoro-3-methylphenyl)-1-methyl-1H-pyrrole-2-carboxamide] | > 30 | > 30 | – | –
Cc1cc(NC(=O)c2ccc(F)c(C(F)(F)C(=O)N3CC(F)(F)CC3C(=O)O)c2)ccc1F (stereo not drawn) [Example 161, 1-(2,2-difluoro-2-(2-fluoro-5-((4-fluoro-3-methylphenyl)carbamoyl)phenyl)acetyl)-4,4-difluoropyrrolidine-2-carboxylic acid] | 5 to 30 | > 30 | – | –
Cn1cc(C(=O)Nc2ccc(F)c(Cl)c2)cc1C(F)(F)C(=O)NC1(C#N)CC1 [Example 146, N-(3-chloro-4-fluorophenyl)-5-(2-((1-cyanocyclopropyl)amino)-1,1-difluoro-2-oxoethyl)-1-methyl-1H-pyrrole-3-carboxamide] | < 5 | > 30 | – | –
CN(C(=O)c1ccc(Cl)c(C(F)(F)C(=O)N2CCC(O)CC2)c1)c1ccc(Cl)cc1 [Example 40, 4-chloro-N-(4-chlorophenyl)-3-(1,1-difluoro-2-(4-hydroxypiperidin-1-yl)-2-oxoethyl)-N-methylbenzamide] | > 30 | > 30 | – | –
Cc1cc(NC(=O)c2cc(C(O)C(=O)NC(C)(C)C)cn2C)ccc1F (stereo not drawn) [Example 121, 4-(2-(tert-butylamino)-1-hydroxy-2-oxoethyl)-N-(4-fluoro-3-methylphenyl)-1-methyl-1H-pyrrole-2-carboxamide] | < 5 | > 30 | – | –
Cc1cc(NC(=O)c2ccc(F)c(C(F)(F)C(=O)N3CCn4c(cnc4C(F)(F)F)C3)c2)ccc1F [Example 312, 3-(1,1-difluoro-2-oxo-2-(3-(trifluoromethyl)-5,6-dihydroimidazo[1,5-a]pyrazin-7(8H)-yl)ethyl)-4-fluoro-N-(4-fluoro-3-methylphenyl)benzamide] | < 5 | – | – | –
C=C1[C@H](CO)[C@@H](O)C[C@@H]1n1cnc2c(=O)[nH]c(N)nc21 [entecavir, reference compound] | – | – | 0.0005 | –
Cn1cc(C(=O)Nc2ccc(F)c(Cl)c2)cc1C(F)(F)C(=O)NC(C)(C)C [Example 139, 5-(2-(tert-butylamino)-1,1-difluoro-2-oxoethyl)-N-(3-chloro-4-fluorophenyl)-1-methyl-1H-pyrrole-3-carboxamide] | < 5 | – | – | –
Cc1cc(NC(=O)c2ccc(F)c(C(F)(F)C(=O)N3[C@@H]4CC[C@H]3c3sc(N)nc3C4)c2)ccc1F [Example 313, 3-(2-((5R,8S)-2-amino-5,6,7,8-tetrahydro-4H-5,8-epiminocyclohepta[d]thiazol-9-yl)-1,1-difluoro-2-oxoethyl)-4-fluoro-N-(4-fluoro-3-methylphenyl)benzamide] | < 5 | – | – | –
CN[C@@H]1C[C@H]2O[C@@](C)([C@@H]1OC)n1c3ccccc3c3c4c(c5c6ccccc6n2c5c31)C(=O)NC4 [staurosporine, reference compound] | – | – | – | 0.1
